Test results as given in PubChem BioAssay (NCI).
“And” between values parts separate entries of the source, which are not always exact repeats. Equal values may be shown once.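 Following 48 hours of exposure in 96-well plates, responses at five concentrations were used to interpolate endpoints linearly. The concentration for 50% growth inhibition is given as GI50. TGI is the concentration that stops growth completely.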

Legend:
Assay in all cases: NCI-60 cell line screen, 48 h
SK-MEL-2 melanoma = tested on: SK-MEL-2 melanoma
MCF7 breast = tested on: MCF7 breast
786-0 renal = tested on: 786-0 renal
RPMI-8226 leukemia = tested on: RPMI-8226 leukemia
ACHN renal = tested on: ACHN renal
OVCAR-4 ovarian = tested on: OVCAR-4 ovarian
MDA-MB-435 = tested on: MDA-MB-435
SK-MEL-28 melanoma = tested on: SK-MEL-28 melanoma
MDA-MB-231 breast = tested on: MDA-MB-231 breast
T-47D breast = tested on: T-47D breast

SMILES	GI50 (SK-MEL-2 melanoma)	TGI (SK-MEL-2 melanoma)	GI50 (MCF7 breast)	TGI (MCF7 breast)	GI50 (786-0 renal)	TGI (786-0 renal)	GI50 (RPMI-8226 leukemia)	TGI (RPMI-8226 leukemia)	GI50 (ACHN renal)	TGI (ACHN renal)	GI50 (OVCAR-4 ovarian)	TGI (OVCAR-4 ovarian)	GI50 (MDA-MB-435)	TGI (MDA-MB-435)	GI50 (SK-MEL-28 melanoma)	TGI (SK-MEL-28 melanoma)	GI50 (MDA-MB-231 breast)	TGI (MDA-MB-231 breast)	GI50 (T-47D breast)	TGI (T-47D breast)
C=C1C(=O)O[C@H]2[C@H]1CC/C(Cn1cc(Cn3ccc4cc(Cl)ccc43)nn1)=C\CC[C@@]1(C)O[C@@H]21	1.61 µM	3.72 µM	1.25 µM	3.02 µM	1.81 µM	3.57 µM	0.796 µM	3.03 µM	1.24 µM	2.5 µM	1.53 µM	3.02 µM	1.56 µM	2.98 µM	1.73 µM	3.27 µM	1.36 µM	2.82 µM	1.72 µM	4.32 µM
Cc1c(N(C(=O)c2cc(-c3cc(Cl)ccc3C(=O)N3Cc4ccccc4C[C@H]3CN3CCOCC3)n(C)c2C)c2ccc(O)cc2)cc(C#N)n1C	11.8 µM	30.7 µM	23.5 µM	> 100 µM	12.5 µM	36.8 µM	7.32 µM	> 100 µM	23.6 µM	> 100 µM	11.4 µM	> 100 µM	16.5 µM	40.7 µM	31.3 µM	> 100 µM	20.2 µM	> 100 µM	7.09 µM	> 100 µM
OCC1OC(O)C(N=Cc2ccc3c(c2)OCO3)C(O)C1O (stereo not drawn)		> 100 µM		> 100 µM		> 100 µM		> 100 µM		> 100 µM		> 100 µM		> 100 µM		> 100 µM		> 100 µM		> 100 µM
O=C(Nc1nc(-c2ccc(Cl)cc2)cs1)c1ccc(O)c(O)c1			5.49 µM	43.4 µM	4.07 µM	15.3 µM	2.14 µM	10.7 µM	3.24 µM	12.1 µM	4.33 µM	35.9 µM	3.18 µM	14.4 µM	3.63 µM	20 µM	4.39 µM	20.4 µM	2.87 µM	18.5 µM
COc1cc(-c2ccc(-[n+]3nc(-c4ccc([N+](=O)[O-])cc4)nn3-c3ccc([N+](=O)[O-])cc3)c(OC)c2)ccc1-[n+]1nc(-c2ccc([N+](=O)[O-])cc2)nn1-c1ccc([N+](=O)[O-])cc1	4.29 µM	17.9 µM	1.75 µM	4.47 µM	3.45 µM	23.2 µM	10.1 µM	67.8 µM	4.16 µM	19.2 µM	3.56 µM	55.7 µM	2.51 µM	6.62 µM	18 µM	64.4 µM	8.6 µM	34.7 µM	0.3 µM	5.75 µM
CC1=Cc2cc3[n-]c(cc4nc(cc5[n-]c(cc1n2)c(C)c5CCC(=O)O)C(CCC(=O)O)=C4C)cc3C.[Cu+2]	> 1 µM and 10.9 µM	> 81.7 µM	63.7 µM	> 100 µM	> 1 µM and 21.1 µM	> 1 µM and 54.5 µM	> 1 µM and 53.9 µM	> 80 µM	> 1 µM and 38.8 µM	> 100 µM	> 100 µM	> 100 µM	55.1 µM	> 100 µM	> 1 µM and 4.4 µM	> 1 µM and 12.9 µM	22.6 µM	50.3 µM	47.6 µM	> 100 µM
